These results are taken from article PMC7730961, “Discovery of Novel Dual Extracellular Regulated Protein Kinases (ERK) and Phosphoinositide 3-Kinase (PI3K) Inhibitors as a Promising Strategy for Cancer Therapy” (Molecules, 2020).

Where two headings read alike, the source gives them in different places.

One series relates to HCT-116 xenograft. As to the kind of experiment: In vivo antitumor activity, HCT-116 xenograft in nude mice. Also noted: species or system Balb/c-nude mice. Particulars: intraperitoneal once daily, 21 days, 32d 5 mg/kg, BVD-523 5 mg/kg, GDC-0980 1 mg/kg. On the procedure: Male five-week-old Balb/c-nude mice (18–20 g) were injected subcutaneously with HCT-116 cells (5 × 10^7/mL cells suspended in Matrigel Matrix). […] All mice were administered by intraperitoneal q.d. The tumor volumes were measured using electronic digital calipers every 3 days and were calculated as 1/2 length × width × width.

A further series concerns HEC1B. As to the kind of experiment: Anti-proliferation assay (MTT, 72 h), HEC1B. Particulars: Homo sapiens, HEC-1B, HEC1B cells. Type of series: cell-based. On the procedure: (§1) Human cancer cell lines HCT116 and HEC1B were cultured in media with 10% FBS (GIBCO, Invitrogen Corporation, NY, USA) at 37 °C in a 5% (v/v) CO2 humidified incubator. The logarithmic growth phase cells were seeded in a 96-well plate with a density of 1 × 10^5 cells/mL, cultured at 37 °C, 5% CO2. Until the cells were 90% confluent, the medium containing compound was added to incubate for 72 h, and then the cell viability was tested by MTT analysis. Taking the drug concentration as the abscissa and the percentage of proliferation inhibitory activity corresponding to each concentration as the ordinate, using Graphpad Prism 5 to do nonlinear regression, the IC50 value of each compound was calculated.

The target of a further series is PI3Kα (Homo sapiens, UniProt P42336). Put plainly: Enzymatic inhibition assay (ADP-Glo Plus luminescence kinase assay), PI3Kα. The note with it: for inhibition at 0.1 µM: 100 nM compound. Type of series: biochemical. On the procedure: The 50 µL reaction mixture contains 40 mM Tris-HCl, pH 7.4, 10 µM ATP, 10 mM MgCl2, 0.1 mg/mL BSA, 1 mM DTT, 0.2 ug/mL ERK 2, ERK 1, PI3Kα, PI3Kβ, PI3Kγ or PI3Kδ and 100 uM lipid substrate. All compounds were diluted in 10% DMSO and tested in 10-dose with 3-fold serial dilution starting at a concentration of 1 μM. Of the dilution, 5 µL was added to a 50 µL reaction so that the final concentration of DMSO is 1% in all of reactions. After all of the reaction mixtures were conducted at 30 °C for 40 min, the assay was performed using ADP-Glo Plus luminescence kinase assay kit. The luminescence signal and the intensity of the luminescence signal value were detected using a multi-well spectrophotometer (the MD-SpectraMax M5 multifunctional microplate reader). It was directly proportional to the […] enzyme activity. The experimental results were converted into active percentages, a dose-response curve is drawn, and the IC50 value of inhibition was calculated using […] PRISM 5 nonlinear regression.
PI3Kα, sequence (P42336 whole entry): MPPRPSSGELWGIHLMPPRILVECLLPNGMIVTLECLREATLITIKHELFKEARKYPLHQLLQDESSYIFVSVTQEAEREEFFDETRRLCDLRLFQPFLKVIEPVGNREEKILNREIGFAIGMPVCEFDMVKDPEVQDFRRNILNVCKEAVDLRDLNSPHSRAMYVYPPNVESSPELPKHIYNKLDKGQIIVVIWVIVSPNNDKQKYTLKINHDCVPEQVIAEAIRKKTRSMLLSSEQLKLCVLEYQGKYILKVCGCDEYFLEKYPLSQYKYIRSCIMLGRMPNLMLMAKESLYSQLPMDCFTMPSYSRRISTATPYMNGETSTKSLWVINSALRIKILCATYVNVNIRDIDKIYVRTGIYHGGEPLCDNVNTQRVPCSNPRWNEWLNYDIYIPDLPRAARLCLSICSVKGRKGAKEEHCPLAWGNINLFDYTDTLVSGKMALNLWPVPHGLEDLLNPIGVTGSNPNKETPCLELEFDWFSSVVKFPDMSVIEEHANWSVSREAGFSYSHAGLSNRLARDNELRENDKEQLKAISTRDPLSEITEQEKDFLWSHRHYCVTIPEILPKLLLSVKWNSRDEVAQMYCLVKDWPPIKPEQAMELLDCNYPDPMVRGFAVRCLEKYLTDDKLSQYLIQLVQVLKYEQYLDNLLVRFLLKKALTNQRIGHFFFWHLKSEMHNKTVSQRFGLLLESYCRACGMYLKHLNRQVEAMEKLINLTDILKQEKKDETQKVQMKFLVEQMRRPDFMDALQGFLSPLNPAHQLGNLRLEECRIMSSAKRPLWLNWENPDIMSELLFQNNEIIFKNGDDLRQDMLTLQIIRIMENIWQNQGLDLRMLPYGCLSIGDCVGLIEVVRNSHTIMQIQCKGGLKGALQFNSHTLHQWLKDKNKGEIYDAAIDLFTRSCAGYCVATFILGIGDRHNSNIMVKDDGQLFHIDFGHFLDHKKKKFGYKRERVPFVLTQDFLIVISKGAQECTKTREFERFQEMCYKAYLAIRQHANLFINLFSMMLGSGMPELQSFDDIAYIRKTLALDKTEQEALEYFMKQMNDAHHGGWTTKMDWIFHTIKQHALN
PI3Kα, sequence (P27986 whole entry partner): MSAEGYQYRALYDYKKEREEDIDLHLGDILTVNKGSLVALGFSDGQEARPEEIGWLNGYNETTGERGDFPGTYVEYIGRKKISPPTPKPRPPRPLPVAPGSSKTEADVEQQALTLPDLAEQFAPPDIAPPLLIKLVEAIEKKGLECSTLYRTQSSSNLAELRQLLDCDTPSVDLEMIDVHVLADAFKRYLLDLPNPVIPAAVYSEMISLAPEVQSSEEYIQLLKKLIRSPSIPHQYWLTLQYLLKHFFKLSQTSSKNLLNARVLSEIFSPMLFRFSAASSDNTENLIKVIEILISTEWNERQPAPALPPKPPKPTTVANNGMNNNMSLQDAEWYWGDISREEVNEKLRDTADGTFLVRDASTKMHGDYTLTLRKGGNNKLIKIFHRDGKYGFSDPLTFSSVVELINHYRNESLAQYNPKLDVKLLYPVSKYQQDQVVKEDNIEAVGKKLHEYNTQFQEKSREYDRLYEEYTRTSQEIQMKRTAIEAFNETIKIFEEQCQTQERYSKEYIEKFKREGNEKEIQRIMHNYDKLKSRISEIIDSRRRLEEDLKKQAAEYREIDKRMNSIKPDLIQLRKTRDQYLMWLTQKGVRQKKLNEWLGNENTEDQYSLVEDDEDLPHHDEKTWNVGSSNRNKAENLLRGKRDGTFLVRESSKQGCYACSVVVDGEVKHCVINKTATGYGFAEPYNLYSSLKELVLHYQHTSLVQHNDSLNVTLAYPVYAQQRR
Background: ADP-Glo first removes unused ATP, then detects ADP through luciferase.

For a further series, the system named is HCT116. Put plainly: Anti-proliferation assay (MTT, 72 h), HCT116. Type of series: cell-based. The note with it: Homo sapiens, HCT-116, HCT116 cells. The protocol:
as §1

For a further series, the target named is ERK 2 (Homo sapiens, UniProt P28482). Put plainly: Enzymatic inhibition assay (ADP-Glo Plus luminescence kinase assay), ERK2. Type of series: biochemical. Particulars: for inhibition at 0.1 µM: 100 nM compound. On the procedure: All compounds were diluted in 10% DMSO and tested in 10-dose with 3-fold serial dilution starting at a concentration of 1 μM. Of the dilution, 5 µL was added to a 50 µL reaction so that the final concentration of DMSO is 1% in all of reactions. After all of the reaction mixtures were conducted at 30 °C for 40 min, the assay was performed using ADP-Glo Plus luminescence kinase assay kit. The luminescence signal and the intensity of the luminescence signal value were detected using a multi-well spectrophotometer (the MD-SpectraMax M5 multifunctional microplate reader). It was directly proportional to the inhibition of enzyme activity.
ERK 2, sequence (P28482 whole entry): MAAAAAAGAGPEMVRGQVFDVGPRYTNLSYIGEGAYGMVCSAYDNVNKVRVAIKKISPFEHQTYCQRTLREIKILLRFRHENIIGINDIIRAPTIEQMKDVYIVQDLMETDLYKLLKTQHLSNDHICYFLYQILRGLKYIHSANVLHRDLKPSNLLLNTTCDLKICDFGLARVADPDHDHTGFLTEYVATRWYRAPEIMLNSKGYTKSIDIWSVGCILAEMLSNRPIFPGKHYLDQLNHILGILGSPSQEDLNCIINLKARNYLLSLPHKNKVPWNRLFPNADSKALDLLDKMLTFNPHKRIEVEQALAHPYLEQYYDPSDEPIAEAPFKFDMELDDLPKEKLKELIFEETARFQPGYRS

The nature of series [1]: In vitro pharmacokinetic study, oxidation metabolism in human liver microsomes. Type of series: in vitro ADME. The note with it: n = 3. The protocol:
The pharmacokinetic experiment was conducted by using human liver microsome (purchased from Research Institute for Liver Diseases (Shanghai) Co., Ltd., Shanghai, China). The reaction mixture contained 100 μL PBS, 40 μL liver microsome and 20 μL dilution of compound 32d. After the reaction mixtures were preconducted at 37 °C for 5 min, 40 μL NADPH solution was added to start pharmacokinetic reaction, and samples were collected at different time points (5 min, 10 min, 15 min, 30 min and 45 min). Then, 100 μL of ethyl acetate was added to stop the reaction. The whole samples were added in 10 μL of an internal standard (Phenacetin) to shake for 10 min and centrifuge at 10,000 rpm for 10 min and then taken out 300 μL of supernatant.for LC/MS/MS analysis. WinNolin 8.2 software was used to calculate pharmacokinetic parameters, and GraphPad Prism 8.0 was used to draw concentration-time curves.
(Microsomes from liver hold many membrane-bound enzymes, among them those of drug oxidation.)

Series [2] can be described thus: In vivo pharmacokinetic study in SD rats. The note with it: for MRT last: read-out: MRT0–t. Also noted: species or system Sprague Dawley rats. The protocol: The pharmacokinetic experiment was conducted by using 180–220 g male Sprague Dawley rats (purchased from Weitong Lihua Experimental Animal Co., Ltd., Beijing, China). The experimental animals were raised in a well-ventilated, air-conditioned standard animal room where the temperature was maintained at 20–25 °C, the humidity was maintained at 40–70%, and the light and dark were rotated for 12 h each. After about 5 days of normal feeding, rats with good physical signs can enter this experiment after veterinary inspection. All rats were fasted for 12 h before the start of the animal experiment. The 32d was dissolved in a mixture of 40% DMSO + 40% PEG400 + 20% 5% glucose injection at a concentration of 1 mg/mL (1 mg/kg). The 32d was administered to the […] by p.o. (0.2 mg/mL, 10 mg/kg), and blood samples (about 0.25 mL) were collected from the posterior orbital venous plexus after different time points (i.v.: 2 min, 15 min, 30 min, 1 h, 2 h, 4 h, 6 h, 8 h, and 12 h; po: 5 min, 15 min, 30 min, 1 h, 2 h, 4 h, 6 h, 8 h, 12 h, and 24 h) after dosing, with three […] for each time point. The whole plasma samples were kept frozen at −20 °C until LC/MS/MS analysis after centrifugation. WinNolin 8.2 software was used to calculate pharmacokinetic parameters, and GraphPad Prism 8.0 was used to draw plasma concentration-time curves.

Another series is described as follows: Solubility. The note with it: relative to parent after introducing a hydrophilic group at the pyrazole NH. Type of series: physicochemical.
The mark [3] stands for this setting: male, Sprague-Dawley, rat, plasma, iv, i.v. 1 mg/kg.
The mark [4] stands for this setting: male, Sprague-Dawley, rat, plasma, po, p.o. 10 mg/kg.

In the case of `O=C(Nc1ncc2ncc(-c3cn[nH]c3)cc2n1)NC1CCCC1` [32d, 1-(7-(1H-pyrazol-4-yl)pyrido[3,2-d]pyrimidin-2-yl)-3-cyclopentylurea], the “body weight of nude mice during treatment” value in the series on HCT-116 xenograft is on record as “no observed body weight loss”. Also, the “TGI (tumor growth inhibitory rate)” value in the series with HCT-116 xenograft (nude mice, combination 2.5 mg/kg + 0.5 mg/kg) was 51%. Moreover, the IC50 (commonly the concentration that gives 50% inhibition) in the series on HEC1B was determined as 1490 nM. Moreover, at PI3Kα, the IC50 came to 59 nM and the inhibition (in general, how much of the control response was suppressed) at 0.1 µM turned out to be 51.4%. In the series on HCT116, this molecule registered an IC50 of 726 nM. For the same molecule, on ERK 2, the IC50 turned out to be 73 nM and the inhibition at 0.1 µM amounted to 49.3%. In series [1] (90 ng/mL), the K was determined as 0.004 min⁻¹. Moreover, in series [1], the half-life (as a rule, the time needed for the level to fall by half in the phase considered) at 90 ng/mL worked out at 2.89 h and the microsomal CLint (as a rule, the rate of metabolic loss divided by the concentration) at 90 ng/mL is 16 µL/min/mg. Besides, in series [2] (setting [3]), the total exposure AUC(0-inf) (usually the area under the concentration-time curve extrapolated to infinity) was found to be 379 ng·h/mL; the AUC(0-t) (as a rule, exposure summed from dosing to a finite time, without extrapolation to infinity) came out at 368 ng·h/mL; the peak level (Cmax) was 1310 ng/mL; the clearance (usually a measure of how efficiently the substance is removed, as volume per time) is 44.8 mL/min/kg. In series [2] (setting [3]), the half-life was 2.32 h and the MRT last worked out at 0.99 h. In addition, the Vd in series [2] (male, Sprague-Dawley, rat, plasma, iv, i.v. 1 mg/kg, read-out: Vz) was 9.12 L/kg. In addition, in series [2] (male, Sprague-Dawley, rat, plasma, oral, p.o. 10 mg/kg vs i.v. 1 mg/kg, read-out: oral bioavailability (F)), the bioavailability (usually dose-corrected exposure relative to a reference, in per cent) stood at 9.37%. In series [2] (setting [4]), the AUC(0-inf) amounted to 355 ng·h/mL; the AUC(0-t) is 192 ng·h/mL; the Cmax – broadly, the highest concentration seen after dosing – came to 129 ng/mL; the half-life is 2.65 h. Moreover, the MRT last in series [2] (setting [4]) was determined as 2.93 h. Also, in series [2] (p.o. 10 mg/kg), the CL stood at 727.9 mL/min/kg and the Vz was found to be 244.74 L/kg.

On to `O=C(Nc1ncc2ncc(-c3cnn(CCN4CCOCC4)c3)cc2n1)NC1CCCC1` [32l, 1-Cyclopentyl-3-(7-(1-(2-morpholinoethyl)-1H-pyrazol-4-yl)pyrido[3,2-d]pyrimidin-2-yl)urea], for which the IC50 with HEC1B was determined as 3630 nM; in the series with HCT116 it was 1760 nM. Further, the inhibition at 0.1 µM at PI3Kα came to 63.8%; on ERK 2, 21.4%. Further, the solubility entry in “Solubility” was “ameliorated”.

For the molecule `CN(C)CCn1cc(-c2cnc3cnc(NC(=O)NC4CCCC4)nc3c2)cn1` [32m, 1-Cyclopentyl-3-(7-(1-(2-(dimethylamino)ethyl)-1H-pyrazol-4-yl)pyrido[3,2-d]pyrimidin-2-yl) urea], the figures for the inhibition at 0.1 µM on PI3Kα and at ERK 2 were 41% and 8.4%, respectively. For the same molecule, in “Solubility”, the solubility entry is reported as “ameliorated”.
